In brackets after ≈: the same amount, converted by molar mass. Where two headings read alike, the source gives them in different places.
Tests used:
HePG2 liver cancer cells = assay: MTT assay, HePG2; conditions: Homo sapiens, HepG2, 72 h; for IC50: read-out: IC50 HePG2; for cytotoxicity at 100 µg/mL: read-out: MTT cell proliferation mortality assay (%) HePG2
From the text: (§1) All of the following steps were done in a sterile Laminar flow class II biosafety cabinet (Baker, SG406INT, Sanford, ME, USA). DMEM was used as a suspension medium for breast cancer (MCF7), colorectal cancer (HCT116), prostate cancer (PC3), liver cancer (HePG2), pancreatic cancer (PACA2) and lung cancer (A549), while normal cell line (BJ1) was suspended in DMEM-F12 medium. The selected cell lines were purchased from American Type Culture Collection (ATCC). The media were supplemented with a 1% antimycotic-antibiotic mixture (10,000 µg/ml streptomycin sulfate, 25 µg/ml Amphotericin B, and 10,000 U/ml Potassium Penicillin) and 1% L-glutamine. 10 × 10^4cells/well were seeded in 96 well microtiter plates and incubated for 24 h at 37 ℃ under 5% carbon dioxide using a water-jacketed Carbon dioxide incubator (Sheldon, SCO5A, OR, USA). […] After the incubation time of 72 h, the medium was removed. Afterward, 40 µl MTT salt ([…]) was added to each well and kept for 4 h under the same conditions of 37 °C and 5% carbon dioxide. Finally, 200 μl of 10% Sodium dodecyl sulfate (SDS) in deionized water was added to each well and incubated overnight at 37 °C. The step of SDS addition was done to stop the reaction and dissolve the formed formazan crystals. The absorbance was then measured at a wavelength of 595 nm and the reference wavelength was set at 620 nm using a microplate multi-well reader (Bio-Rad Laboratories Inc., model 3356, California, USA). […] A statistical significance analysis was determined between the samples and the negative control using an independent t-test by SPSS 11 program. Dimethyl sulfoxide (DMSO) was the vehicle that dissolved our synthesized compounds and its concentration in the cells was less than 0.2%. IC50 values were calculated using the GraphPad Prism 6 program. The degree of selectivity of the synthetic compounds was expressed as SI = IC50 of a pure compound in a normal cell line/IC50 of the same pure compound in the cancer cell line, where IC50 is the concentration of the compound required to kill 50% of the cells.

[1] = MTT assay, normal cell line BJ1; assay type: cell-based; conditions: human, at 100 μg/ml, read-out: MTT cell proliferation mortality assay (%) BJ1
From the text: as §1

[2] = test system: PC3 prostate cancer cells; assay: MTT assay, PC3; conditions: 72 h; for IC50 / cytotoxicity at 100 µg/mL: Homo sapiens; for IC50: read-out: IC50 PC3
From the text: as §1

[3] = test system: PACA2 pancreatic cancer cells; assay: MTT assay, PACA2; conditions: Homo sapiens, PaCa-2, 72 h; for cytotoxicity at 100 µg/mL: read-out: MTT cell proliferation mortality assay (%) PACA2; for IC50: read-out: IC50 PACA2
From the text: as §1

A549 lung cancer cells = assay: MTT assay, A549; conditions: for IC50 / cytotoxicity at 100 µg/mL: Homo sapiens, A549, 72 h; for IC50: read-out: IC50 A549
From the text: as §1

MCF7 breast cancer cells = assay: MTT assay, MCF7; conditions: for IC50 / cytotoxicity at 100 µg/mL: Homo sapiens, MCF7, 72 h; for IC50: read-out: IC50 MCF7
From the text: as §1

[4] = test system: HCT116 colorectal cancer cells; assay: MTT assay, HCT116; conditions: for IC50 / cytotoxicity at 100 µg/mL: Homo sapiens, HCT-116, 72 h; for IC50: read-out: IC50 HCT116
From the text: as §1

Bcl-2 = assay: RT-qPCR Bcl-2 mRNA in MCF7; assay type: cell-based, human; conditions: MCF7, vs negative control
Method: (§2) All of the extractions were conducted on ice with ice-cold reagents. Total RNA from the different cell lines was isolated using Trizol (Invitrogen; Life Technologies, USA) according to the method of Sthoeger et al.. The 260:280 ratios were measured to determine RNA quality after the isolation method was completed according to the manufacturer’s instructions. A high-capacity cDNA reverse transcription kit was used to produce complementary DNA (cDNA) (Applied Biosystems, USA). […] The relative gene expression method (i.e., ΔΔCT) was used to analyze the real-time PCR data, as explained in Applied Biosystem User Bulletin No. 2. Each sample and gene were normalized using the β-actin gene.

IL-8 = assay: RT-qPCR IL-8 mRNA in MCF7; assay type: cell-based, human; conditions: MCF7, vs negative control
Method: as §2

BAX = assay: RT-qPCR BAX mRNA in MCF7; assay type: cell-based, human; conditions: MCF7, vs negative control
Method: as §2

DR4 = assay: RT-qPCR DR4 mRNA in MCF7; assay type: cell-based, human; conditions: MCF7, vs negative control
Method: as §2

P53 = assay: RT-qPCR P53 mRNA in MCF7; assay type: cell-based, human; conditions: MCF7, vs negative control
Method: as §2

CDK4 = assay: RT-qPCR CDK4 mRNA in MCF7; assay type: cell-based, human; conditions: MCF7, vs negative control
Method: as §2

DR5 = assay: RT-qPCR DR5 mRNA in MCF7; assay type: cell-based, human; conditions: MCF7, vs negative control
Method: as §2

[5] = read-out: MTT cell proliferation mortality assay (%) PC3, at 100 μg/ml, 72 h
[6] = read-out: MTT cell proliferation mortality assay (%) A549, at 100 μg/ml, 72 h
[7] = read-out: MTT cell proliferation mortality assay (%) MCF7
[8] = read-out: MTT cell proliferation mortality assay (%) HCT116, at 100 μg/ml, 72 h

SMILES | IC50 (HePG2 liver cancer cells) [µg/mL] | cytotoxicity at 100 µg/mL (HePG2 liver cancer cells) [%] | cytotoxicity at 72 h, 100 μg/ml [1] [%] | IC50 [2] [µg/mL] | cytotoxicity at 100 µg/mL [2, 5] [%] | cytotoxicity at 100 µg/mL [3] [%] | IC50 (A549 lung cancer cells) [µg/mL] | cytotoxicity at 100 µg/mL (A549 lung cancer cells; [6]) [%] | IC50 (MCF7 breast cancer cells) [µg/mL] | cytotoxicity at 100 µg/mL (MCF7 breast cancer cells; [7]) [%] | IC50 [4] [µg/mL] | cytotoxicity at 100 µg/mL [4, 8] [%] | IC50 [3] [µg/mL] | other results
COc1ccc(-c2c(Cl)n(-c3ccc(Cl)cc3Cl)c3ncnc(Cl)c23)cc1OC [Compound 4b, 4,6-dichloro-7-(2,4-dichlorophenyl)-5-(3,4-dimethoxyphenyl)-7H-pyrrolo[2,3-d]pyrimidine] | 84.3 ± 0.7 (≈ 180 µM) | 84.3 ± 0.9 | 22.5 ± 0.3 | 28.5 ± 0.8 (≈ 60.7 µM) | 100 | 100 | 17.5 ± 0.4 (≈ 37.3 µM) | 100 | 45.8 ± 1 (≈ 97.6 µM) | 90.3 ± 4.9 | 58.4 ± 0.7 (≈ 124 µM) | 80 to 90 | – | cytotoxicity (MCF7 breast cancer cells; read-out: MTT cell proliferation mortality assay (%) MCF7, at 100 μg/ml, 72 h): 80 to 95%; cytotoxicity [4, 8]: 90.2 ± 1%
CN1CCN(c2nc(C(Cl)(Cl)Cl)nc3c2c(-c2ccc(Br)cc2)c(Cl)n3-c2ccc(Cl)cc2Cl)CC1 [Compound 17, 5-(4-bromophenyl)-6-chloro-7-(2,4-dichlorophenyl)-4-(4-methylpiperazin-1-yl)-2-(trichloromethyl)-7H-pyrrolo[2,3-d]pyrimidine] | 8.7 ± 0.8 (≈ 13 µM) | 100 | 12.5 ± 1.7 | 66.8 ± 2 (≈ 99.8 µM) | 80 to 90 | 100 | 34.1 ± 1.5 (≈ 51 µM) | 80 to 90 | – | 74.3 ± 1.7 | 37.8 ± 0.4 (≈ 56.5 µM) | 100 | 6.4 ± 0.7 (≈ 9.57 µM) | cytotoxicity ([2]; read-out: MTT cell proliferation mortality assay (%) PC3, at 100 μg/ml): 79.5 ± 0.5%; cytotoxicity (A549 lung cancer cells; [6]): 89.2 ± 0.4%
COc1cccc2c1C(=O)c1c(O)c3c(c(O)c1C2=O)C[C@@](O)(C(=O)CO)C[C@@H]3O[C@H]1C[C@H](N)[C@H](O)[C@H](C)O1 [Dox, Doxorubicin, reference compound] | 21.6 ± 0.8 (≈ 39.7 µM) | 100 | – | 23.8 ± 0.2 (≈ 43.8 µM) | – | 100 | 28.3 ± 1.3 (≈ 52.1 µM) | – | 26.1 ± 0.1 (≈ 48 µM) | 100 | 37.6 ± 0.8 (≈ 69.2 µM) | – | 28.3 ± 0.4 (≈ 52.1 µM) | Bcl-2 mRNA level (Bcl-2): down-regulated; IL-8 mRNA level (IL-8): lowered; cytotoxicity at 100 µg/mL ([2]; read-out: MTT cell proliferation mortality assay (%) PC3): 100%; BAX mRNA level (BAX): up-regulated; DR4 mRNA level (DR4): increased; P53 mRNA level (P53): up-regulated; cytotoxicity at 100 µg/mL (A549 lung cancer cells; read-out: MTT cell proliferation mortality assay (%) A549): 100%; CDK4 mRNA level (CDK4): lowered; DR5 mRNA level (DR5): increased; cytotoxicity at 100 µg/mL ([4]; read-out: MTT cell proliferation mortality assay (%) HCT116): 100%

From article PMC10463376, “Design, synthesis, in vitro anticancer, molecular docking and SAR studies of new series of pyrrolo[2,3-d]pyrimidine derivatives” (BMC Chemistry, 2023)
